# Literature values as cited in patent publication US20230310343A1 (priority 2020, published 2023).
# Where two headings read alike, the source gives them in different places.
# Key:
# [1] = test system: infectious bronchitis virus (IBV)
# [2] = target: N-terminus of the N protein (Avian infectious bronchitis virus, UniProt P69596); conditions: IBV N protein
# [3] = test system: herpes simplex virus 1 (HSV-1); conditions: for selectivity index: HSV-1; for reduction of viral multiplication: HSV-1-infected cells
# [4] = test system: influenza (H1N1) virus
# [5] = target: hemagglutinin (Influenza A virus, UniProt P03452)
# [6] = after penetration of the virus into the cell
# [7] = before the virus has entered the cell
# Sequence of N-terminus of the N protein (P69596 31-156 limits assumed): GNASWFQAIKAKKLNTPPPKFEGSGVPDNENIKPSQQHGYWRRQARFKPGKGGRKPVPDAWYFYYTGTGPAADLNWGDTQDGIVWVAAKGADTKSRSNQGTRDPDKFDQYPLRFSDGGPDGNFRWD
# Sequence of hemagglutinin (P03452 18-342 limits assumed): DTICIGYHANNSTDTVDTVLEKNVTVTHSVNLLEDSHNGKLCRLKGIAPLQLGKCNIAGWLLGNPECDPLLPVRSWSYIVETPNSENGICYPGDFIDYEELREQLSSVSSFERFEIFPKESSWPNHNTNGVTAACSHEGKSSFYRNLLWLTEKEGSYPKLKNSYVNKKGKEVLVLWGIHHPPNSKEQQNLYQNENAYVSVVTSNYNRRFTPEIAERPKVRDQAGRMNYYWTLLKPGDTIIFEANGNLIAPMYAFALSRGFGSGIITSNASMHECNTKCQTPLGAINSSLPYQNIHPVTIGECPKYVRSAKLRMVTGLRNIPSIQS
# Sequence of hemagglutinin (P03452 344-565 limits assumed): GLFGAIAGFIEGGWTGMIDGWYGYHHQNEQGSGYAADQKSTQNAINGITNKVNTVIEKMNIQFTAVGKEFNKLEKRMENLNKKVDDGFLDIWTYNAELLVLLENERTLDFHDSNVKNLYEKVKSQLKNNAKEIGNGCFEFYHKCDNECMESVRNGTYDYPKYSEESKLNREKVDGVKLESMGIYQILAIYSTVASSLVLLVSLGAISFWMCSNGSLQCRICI
compound,measurement,setting,value
CC1=CCC2CC1C2(C)C (stereo not drawn) [alpha-pinene],reducing/inhibiting IBV replication,[1],inhibit viral replication
C=C1CCC2CC1C2(C)C (stereo not drawn) [beta-pinene],reducing/inhibiting IBV replication,[1],inhibit viral replication
"CC12CCC(CC1)C(C)(C)O2 [cineole, 1,8-cineole]",binding to the N-terminus of the N protein,[2],binds securely
same,reducing/inhibiting IBV replication,[1],highly effective
same,inhibition of IBV,[1]; [6],fully effective
same,inhibition of IBV,[1]; [7],moderate effectiveness
same,selectivity index,[3],low
same,reduction of viral multiplication,[3],significantly reduce viral multiplication
CC(C)=CCC/C(C)=C/C=O [citrol],reduction of viral multiplication,[3],significantly reduce viral multiplication
CC(C)=CCCC(C)CCO (stereo not drawn) [citronellol],effectiveness against influenza (H1N1),[4]; liquid phase,only partially effective
same,effectiveness against influenza (H1N1),[4]; vapor phase,effective
Cc1ccc(C(C)C)cc1 [cymene],reduction of viral multiplication,[3],significantly reduce viral multiplication
C=CCc1ccc(O)c(OC)c1 [eugenol],effectiveness against influenza (H1N1),[4]; liquid phase,effective
same,plaque reduction,[4]; liquid phase,one hundred
same,effectiveness against influenza (H1N1),[4]; vapor phase,effective
CC1=CCC(O)(C(C)C)CC1 (stereo not drawn) [terpinen-4-ol],reduction of viral multiplication,[3],significantly reduce viral multiplication
Cc1ccc(C(C)C)c(O)c1 [thymol],selectivity index,[3],low
same,reduction of viral multiplication,[3],significantly reduce viral multiplication
pinene,binding to the N-terminus of the N protein,[2],binds to the N-terminus of the N protein
same,inhibition of IBV,[1]; [6],fully effective
same,inhibition of IBV,[1]; [7],moderate effectiveness
same,inhibition of hemagglutinin activity,[5],able to inhibit
same,reduction of viral multiplication,[3],significantly reduce viral multiplication
terpinene,reduction of viral multiplication,[3],significantly reduce viral multiplication
